Results taken from patent US8383619B2, “Pharmaceutical compounds” (Astex Therapeutics Limited, priority 2008, dated 2013).

Tests used:
Experiment in all cases: Anti-proliferative assay (Oncodesign)
Type in all cases: cell-based
A-375 = details: Homo sapiens; A-375 (SKIN); read-out: IC50 (Concentration of test compound)
Description: (§1) The anti-proliferative activities of the parent compounds of the pro-drugs of the invention may be determined by measuring the ability of the compounds to inhibition of cell growth in a number of cell lines such as the human colon cancer cell line HCT116. Inhibition of cell growth is measured using the Alamar Blue assay (Nociari, M. M, Shalev, A., Benias, P., Russo, C. Journal of Immunological Methods 1998, 213, 157-167). The method is based on the ability of viable cells to reduce resazurin to its fluorescent product resorufin. For each proliferation assay cells are plated onto 96 well plates and allowed to recover for 16 hours prior to the addition of inhibitor compounds for a further 72 hours. At the end of the incubation period 10% (v/v) Alamar Blue is added and incubated for a further 6 hours prior to determination of fluorescent product at […]. In the case of the non-proliferating cell assay cells are maintained at confluence for 96 hour prior to the addition of inhibitor compounds for a further 72 hours. The number of viable cells is determined by Alamar Blue assay as before. Cell lines may be obtained from the ECACC (European Collection of cell Cultures).
(§2) The parent compound of the pro-drugs of Examples 1 to 25 i.e. (2,4-dihydroxy-5-isopropyl-phenyl)-[5-(4-methyl-piperazin-1-ylmethyl)-1,3-dihydro-isoindol-2-yl]-methanone, in the form of its L-lactate salt, was tested in anti-proliferative assays against one hundred cell lines by Oncodesign (Dijon, France). The IC50 values against each cell line are set out in the table below and the figures in the table refer to nanomolar concentrations. The compounds were tested up to a concentration of 10,000 nanomolar.

AGS = details: Homo sapiens; AGS (STOMACH); read-out: IC50 (Concentration of test compound)
Description: as §1, §2

BB64-RCC = BB64-RCC (KIDNEY); read-out: IC50 (Concentration of test compound)
Description: as §1, §2

BxPC-3 = details: Homo sapiens; BxPC-3 (PANCREAS); read-out: IC50 (Concentration of test compound)
Description: as §1, §2

Calu-3 = details: Homo sapiens; Calu-3 (LUNG); read-out: IC50 (Concentration of test compound)
Description: as §1, §2

Capan-2 = details: Homo sapiens; Capan-2 (PANCREAS); read-out: IC50 (Concentration of test compound)
Description: as §1, §2

DLD-1 = details: Homo sapiens; DLD-1 (COLON); read-out: IC50 (Concentration of test compound)
Description: as §1, §2

HL-60/R10 = details: Homo sapiens; HL-60/R10 (BLOOD); read-out: IC50 (Concentration of test compound)
Description: as §1, §2

HL-60 = details: Homo sapiens; HL-60 (BLOOD); read-out: IC50 (Concentration of test compound)
Description: as §1, §2

Hep 3B2.1-7 = Hep 3B2.1-7 (LIVER); read-out: IC50 (Concentration of test compound)
Description: as §1, §2

IGROV-1 = details: Homo sapiens; IGROV-1 (OVARY); read-out: IC50 (Concentration of test compound)
Description: as §1, §2

J82 = details: Homo sapiens; J82 (URINARY BLADDER); read-out: IC50 (Concentration of test compound)
Description: as §1, §2

KATO III = details: Homo sapiens; KATO III (STOMACH); read-out: IC50 (Concentration of test compound)
Description: as §1, §2

KB3 = KB3 (HEAD AND NECK); read-out: IC50 (Concentration of test compound)
Description: as §1, §2

KB = details: Homo sapiens; KB (HEAD AND NECK); read-out: IC50 (Concentration of test compound)
Description: as §1, §2

LB1047-RCC = LB1047-RCC (KIDNEY); read-out: IC50 (Concentration of test compound)
Description: as §1, §2

LB11-SCLC/OC1 = LB11-SCLC/OC1 (LUNG); read-out: IC50 (Concentration of test compound)
Description: as §1, §2

LB37-NSCLC = LB37-NSCLC (LUNG); read-out: IC50 (Concentration of test compound)
Description: as §1, §2

LB61-NSCLC = LB61-NSCLC (LUNG); read-out: IC50 (Concentration of test compound)
Description: as §1, §2

LB831-BLC = LB831-BLC (URINARY BLADDER); read-out: IC50 (Concentration of test compound)
Description: as §1, §2

LB996-RCC = LB996-RCC (KIDNEY); read-out: IC50 (Concentration of test compound)
Description: as §1, §2

NCI-H596 = details: Homo sapiens; NCI-H596 (LUNG); read-out: IC50 (Concentration of test compound)
Description: as §1, §2

RPMI 8226/Dox40 = details: Homo sapiens; RPMI 8226/Dox40 (BLOOD); read-out: IC50 (Concentration of test compound)
Description: as §1, §2

T24 = details: Homo sapiens, T-24; T24 (URINARY BLADDER); read-out: IC50 (Concentration of test compound)
Description: as §1, §2

U-937 = details: Homo sapiens; U-937 (BLOOD); read-out: IC50 (Concentration of test compound)
Description: as §1, §2

For `CC(C)c1cc(C(=O)N2Cc3ccc(CN4CCN(C)CC4)cc3C2)c(O)cc1O` [(2,4-dihydroxy-5-isopropyl-phenyl)-[5-(4-methyl-piperazin-1-ylmethyl)-1,3-dihydro-isoindol-2-yl]-methanone], which IC50 (A-375) is on record?
Its IC50 is 1.48 µM.

And the IC50 (AGS)?
Its IC50 is 0.066 µM.

What about the IC50 (BB64-RCC) of the same compound?
The IC50 was over 10 µM.

What about the IC50 (BxPC-3) of the same compound?
The IC50 was 0.196 µM.

What about the IC50 (Calu-3) of the same compound?
The IC50 was over 10 µM.

And the IC50 (Capan-2)?
Its IC50 is 0.144 µM.

And the IC50 (DLD-1)?
Its IC50 is 0.056 µM.

And the IC50 (HL-60/R10)?
Its IC50 is 0.847 µM.

What about the IC50 (HL-60) of the same compound?
Its IC50 is 0.389 µM.

What about the IC50 (Hep 3B2.1-7) of the same compound?
Its IC50 is 0.095 µM.

What about the IC50 (IGROV-1) of the same compound?
The IC50 was 0.109 µM.

And the IC50 (J82)?
Its IC50 is 0.02 µM.

What about the IC50 (KATO III) of the same compound?
The IC50 was 0.162 µM.

And the IC50 (KB3)?
The IC50 was 0.048 µM.

What about the IC50 (KB) of the same compound?
The IC50 was 0.048 µM.

What about the IC50 (LB1047-RCC) of the same compound?
Its IC50 is 0.058 µM.

What about the IC50 (LB11-SCLC/OC1) of the same compound?
Its IC50 is 0.017 µM.

What about the IC50 (LB37-NSCLC) of the same compound?
The IC50 was 0.063 µM.

And the IC50 (LB61-NSCLC)?
Its IC50 is over 10 µM.

And the IC50 (LB831-BLC)?
The IC50 was 0.149 µM.

What about the IC50 (LB996-RCC) of the same compound?
The IC50 was 0.158 µM.

And the IC50 (NCI-H596)?
Its IC50 is 0.084 µM.

And the IC50 (RPMI 8226/Dox40)?
The IC50 was 0.213 µM.

What about the IC50 (T24) of the same compound?
The IC50 was 0.852 µM.

What about the IC50 (U-937) of the same compound?
Its IC50 is 0.104 µM.
